The numbers were not newly measured in patent US20020025310A1, “Compositions and methods for promoting healthy joints” (priority 2000, published 2002), which cites them from elsewhere.

Bounds are passed on as bounds.

For series [1] the following is noted: COPD patients, 600 mg per day oral, compared to patients without NAC.
The subject of another series is isolated alveolar cells. The settings on record: animal studies.
For series [2] the following is noted: 800 mg orally, heavy aerobic exercise.
The conditions of series [3]: 200 to 400 mg/day.
The test system of series [4] is complex I, IV, and V in hepatic mitochondria. The settings on record: senescent mice, compared to controls without NAC supplementation.
Another series has as its target PARS (Homo sapiens, UniProt P09874). Particulars: 100 mg/day supplementation, smokers with varying levels of cytogenic damage.

Chain of PARS (P09874 whole entry): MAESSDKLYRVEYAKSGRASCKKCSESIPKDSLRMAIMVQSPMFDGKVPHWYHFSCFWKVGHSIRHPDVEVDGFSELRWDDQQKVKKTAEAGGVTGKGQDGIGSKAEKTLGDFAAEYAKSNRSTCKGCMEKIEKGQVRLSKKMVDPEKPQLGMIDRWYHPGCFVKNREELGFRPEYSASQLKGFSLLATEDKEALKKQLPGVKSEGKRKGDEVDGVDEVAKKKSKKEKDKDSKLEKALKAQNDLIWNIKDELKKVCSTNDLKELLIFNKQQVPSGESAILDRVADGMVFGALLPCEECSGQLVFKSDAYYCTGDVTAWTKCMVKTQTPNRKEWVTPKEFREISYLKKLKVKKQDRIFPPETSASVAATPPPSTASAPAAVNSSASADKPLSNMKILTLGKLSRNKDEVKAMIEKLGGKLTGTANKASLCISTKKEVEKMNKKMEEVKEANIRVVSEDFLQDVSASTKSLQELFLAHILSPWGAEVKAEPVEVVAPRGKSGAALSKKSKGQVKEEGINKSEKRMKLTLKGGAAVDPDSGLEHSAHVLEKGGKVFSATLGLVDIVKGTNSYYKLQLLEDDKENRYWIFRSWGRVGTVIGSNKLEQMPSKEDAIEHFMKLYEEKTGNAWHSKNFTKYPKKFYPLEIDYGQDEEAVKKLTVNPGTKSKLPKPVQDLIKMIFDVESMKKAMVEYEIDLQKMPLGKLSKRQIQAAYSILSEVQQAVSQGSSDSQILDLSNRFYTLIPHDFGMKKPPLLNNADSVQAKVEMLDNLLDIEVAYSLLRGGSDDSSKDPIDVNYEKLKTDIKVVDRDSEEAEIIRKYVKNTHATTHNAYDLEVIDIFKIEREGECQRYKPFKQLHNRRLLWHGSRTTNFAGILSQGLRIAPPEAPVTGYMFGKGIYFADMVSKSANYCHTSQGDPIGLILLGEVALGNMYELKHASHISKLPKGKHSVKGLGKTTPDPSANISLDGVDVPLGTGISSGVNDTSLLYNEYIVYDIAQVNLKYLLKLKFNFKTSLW

With `CC(=O)N[C@@H](CS)C(=O)O` [NAC, N-acetylcysteine], in series [1], the bacterial-positive cultures result was “fewer bacterial-positive cultures”, the clinical course result is recorded as “improved clinical course” and the use of bronchodilators entry is reported as “reduced use of bronchodilators”. The “intracellular ATP depletion after oxidant exposure” value in the series with isolated alveolar cells is “helps protect”. Moreover, in series [2], the “exercise-associated damage in leukocyte DNA” value is recorded as “less exercise-associated damage in leukocyte DNA”, the glutathione-to-glutathione disulfide ratio entry is recorded as “increased” and the “plasma lipid peroxide level” value is “lowered”. Further, for the setting “400 to 6400 mg/m^2/day in divided doses”, the “individuals reporting side effects” value is given as 13 of 26. Further, where the note is “400 to 6400 mg/m^2/day in divided doses, doubled each month”, the significant side effects entry was “bad taste and GI disturbances”. Besides, the “dose exceeded before any difficulty was reported” value (individuals reporting side effects) was above 800 mg/m^2. For the same compound, in series [3], the “glutathione disulfide-to-reduced glutathione ratio” value is “reduction” and the intercellular glutathione levels entry is recorded as “significant increase”. Besides, in series [4], the “specific activities of complex I, IV, and V in hepatic mitochondria” value is “significantly higher”.

For the compound `O=C(O)c1cccnc1` [nicotinic acid], the PARS activity entry at PARS is reported as “did not result in a significant reduction”.
